{"source": "paper PMC4579064", "about": "(Toxicology and applied pharmacology, 2015)", "key": {"[1]": {"molecular_target": "CYP3A5 (Homo sapiens, UniProt P20815)", "sequence (P20815 whole entry, one chain of several)": "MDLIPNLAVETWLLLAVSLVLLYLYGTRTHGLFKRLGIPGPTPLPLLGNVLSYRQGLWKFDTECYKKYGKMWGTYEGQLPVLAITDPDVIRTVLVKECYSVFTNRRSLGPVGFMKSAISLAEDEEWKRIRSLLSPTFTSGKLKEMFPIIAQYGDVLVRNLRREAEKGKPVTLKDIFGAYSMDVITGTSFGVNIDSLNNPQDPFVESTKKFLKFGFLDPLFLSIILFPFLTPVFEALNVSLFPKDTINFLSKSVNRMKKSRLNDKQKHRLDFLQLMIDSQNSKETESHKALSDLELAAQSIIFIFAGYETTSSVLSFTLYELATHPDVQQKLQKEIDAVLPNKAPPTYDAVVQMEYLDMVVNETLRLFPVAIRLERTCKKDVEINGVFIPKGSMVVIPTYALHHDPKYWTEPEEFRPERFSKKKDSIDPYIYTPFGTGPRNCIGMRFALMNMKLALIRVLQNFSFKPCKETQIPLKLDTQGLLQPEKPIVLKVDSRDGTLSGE", "assay": "recombinant CYP activity with fluorogenic substrate", "type": "biochemical"}, "[2]": {"tested_on": "brain ChE", "assay": "brain ChE activity in parathion-treated rats", "type": "in vivo, rat", "conditions": "parathion 8 mg/kg oral, menadione 40 mg/kg ip 20 min after parathion, 60 min"}, "[3]": {"tested_on": "human liver microsomes", "assay": "paraoxon formation from parathion", "type": "biochemical"}, "[4]": {"molecular_target": "T1, CYP1B1 (Homo sapiens, UniProt Q16678)", "T1 sequence (Q16678 1-543)": "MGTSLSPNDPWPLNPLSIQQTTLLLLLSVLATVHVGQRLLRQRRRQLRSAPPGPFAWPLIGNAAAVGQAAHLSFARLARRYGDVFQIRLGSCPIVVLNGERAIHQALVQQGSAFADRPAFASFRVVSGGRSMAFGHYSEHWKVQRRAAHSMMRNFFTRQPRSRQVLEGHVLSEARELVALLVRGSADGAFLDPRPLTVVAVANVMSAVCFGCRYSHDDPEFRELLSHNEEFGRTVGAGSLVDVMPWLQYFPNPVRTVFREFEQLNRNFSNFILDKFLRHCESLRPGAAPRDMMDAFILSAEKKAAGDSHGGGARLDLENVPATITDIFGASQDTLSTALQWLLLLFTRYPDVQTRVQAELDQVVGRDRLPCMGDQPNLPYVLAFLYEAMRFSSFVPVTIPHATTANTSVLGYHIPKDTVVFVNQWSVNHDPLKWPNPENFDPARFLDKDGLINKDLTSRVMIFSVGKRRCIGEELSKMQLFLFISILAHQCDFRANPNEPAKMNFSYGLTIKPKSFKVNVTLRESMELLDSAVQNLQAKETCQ", "T1 sequence (P16435 2-677 partner)": "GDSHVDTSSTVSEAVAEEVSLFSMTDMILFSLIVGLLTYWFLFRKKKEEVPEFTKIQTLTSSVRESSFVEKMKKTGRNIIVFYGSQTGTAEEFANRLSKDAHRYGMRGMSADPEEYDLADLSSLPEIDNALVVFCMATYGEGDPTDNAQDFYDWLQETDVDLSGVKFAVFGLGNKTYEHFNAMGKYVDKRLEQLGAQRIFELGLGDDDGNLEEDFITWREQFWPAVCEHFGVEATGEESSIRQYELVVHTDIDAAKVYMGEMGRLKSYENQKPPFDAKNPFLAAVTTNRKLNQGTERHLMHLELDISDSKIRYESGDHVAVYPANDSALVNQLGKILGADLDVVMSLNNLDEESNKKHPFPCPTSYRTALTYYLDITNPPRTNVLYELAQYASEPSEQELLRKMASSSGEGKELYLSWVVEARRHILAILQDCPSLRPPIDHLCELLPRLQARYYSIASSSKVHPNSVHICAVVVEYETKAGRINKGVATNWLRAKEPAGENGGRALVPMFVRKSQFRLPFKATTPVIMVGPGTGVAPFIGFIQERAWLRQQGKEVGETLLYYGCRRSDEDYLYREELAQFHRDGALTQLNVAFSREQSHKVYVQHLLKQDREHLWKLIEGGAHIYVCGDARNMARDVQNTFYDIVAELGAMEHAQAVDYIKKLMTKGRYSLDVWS", "assay": "recombinant CYP activity with fluorogenic substrate", "type": "biochemical"}, "[5]": {"molecular_target": "CYP2D6 (Homo sapiens, UniProt P10635)", "sequence (P10635 whole entry, one chain of several)": "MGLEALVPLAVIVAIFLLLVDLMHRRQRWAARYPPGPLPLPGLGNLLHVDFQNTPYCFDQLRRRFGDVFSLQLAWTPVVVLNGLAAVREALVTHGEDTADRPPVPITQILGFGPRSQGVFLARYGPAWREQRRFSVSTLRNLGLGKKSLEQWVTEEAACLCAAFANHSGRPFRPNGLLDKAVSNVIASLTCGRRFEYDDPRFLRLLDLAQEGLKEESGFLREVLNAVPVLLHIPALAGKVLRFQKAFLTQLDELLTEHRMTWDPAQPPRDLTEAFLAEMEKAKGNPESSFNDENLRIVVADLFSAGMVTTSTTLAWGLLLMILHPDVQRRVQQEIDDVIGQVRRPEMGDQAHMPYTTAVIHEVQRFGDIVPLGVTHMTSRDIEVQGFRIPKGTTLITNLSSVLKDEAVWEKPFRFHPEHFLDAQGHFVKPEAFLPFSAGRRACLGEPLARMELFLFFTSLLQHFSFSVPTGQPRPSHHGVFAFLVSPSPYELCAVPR", "assay": "recombinant CYP activity with fluorogenic substrate"}, "[6]": {"molecular_target": "T2, recombinant human CPR (Homo sapiens, UniProt P16435)", "T2 sequence (P16435 1-677)": "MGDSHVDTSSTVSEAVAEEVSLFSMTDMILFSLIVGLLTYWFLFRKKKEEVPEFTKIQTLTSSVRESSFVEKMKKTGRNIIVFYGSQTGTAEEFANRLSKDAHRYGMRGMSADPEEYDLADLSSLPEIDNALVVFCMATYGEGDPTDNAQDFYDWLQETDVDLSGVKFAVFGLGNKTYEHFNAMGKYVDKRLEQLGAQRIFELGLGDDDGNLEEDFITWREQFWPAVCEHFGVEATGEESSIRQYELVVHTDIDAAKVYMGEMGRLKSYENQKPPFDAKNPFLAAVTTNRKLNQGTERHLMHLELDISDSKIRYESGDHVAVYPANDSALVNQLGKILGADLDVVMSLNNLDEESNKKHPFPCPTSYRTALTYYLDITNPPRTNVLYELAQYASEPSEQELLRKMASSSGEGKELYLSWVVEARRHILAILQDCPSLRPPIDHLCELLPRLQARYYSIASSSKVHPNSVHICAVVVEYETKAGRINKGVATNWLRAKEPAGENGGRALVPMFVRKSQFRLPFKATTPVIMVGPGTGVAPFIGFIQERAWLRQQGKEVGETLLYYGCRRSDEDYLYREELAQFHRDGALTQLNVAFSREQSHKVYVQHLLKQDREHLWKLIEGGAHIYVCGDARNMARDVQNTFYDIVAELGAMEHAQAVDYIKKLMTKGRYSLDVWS", "assay": "CPR-mediated redox cycling, hydroxyl radical formation", "type": "biochemical", "conditions": "menadione; Fe/EDTA, terephthalate"}, "[7]": {"molecular_target": "T3, CYP1A2 (Homo sapiens, UniProt P05177)", "T3 sequence (P05177 2-516 limits assumed)": "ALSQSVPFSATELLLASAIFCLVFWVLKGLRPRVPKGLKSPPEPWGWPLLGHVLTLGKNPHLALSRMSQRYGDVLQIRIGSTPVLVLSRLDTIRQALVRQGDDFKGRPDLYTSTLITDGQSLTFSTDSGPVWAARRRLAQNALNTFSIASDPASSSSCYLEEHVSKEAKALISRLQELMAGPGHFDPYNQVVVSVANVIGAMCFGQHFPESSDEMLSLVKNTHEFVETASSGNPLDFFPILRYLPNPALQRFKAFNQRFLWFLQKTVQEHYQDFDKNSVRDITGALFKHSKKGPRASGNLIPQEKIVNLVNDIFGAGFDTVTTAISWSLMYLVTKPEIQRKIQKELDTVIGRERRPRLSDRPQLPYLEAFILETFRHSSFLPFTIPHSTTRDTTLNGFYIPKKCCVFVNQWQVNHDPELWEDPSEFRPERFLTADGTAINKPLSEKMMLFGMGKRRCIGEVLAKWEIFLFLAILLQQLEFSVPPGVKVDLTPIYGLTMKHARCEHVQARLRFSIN"}, "[8]": {"tested_on": "liver Ces", "assay": "liver carboxylesterase", "type": "in vivo, rat", "conditions": "menadione 20 min after parathion"}, "[9]": {"molecular_target": "T3, CYP1A2", "conditions": "50 µM menadione; parathion 200 µM"}}, "data": [{"smiles": "CC1=CC(=O)c2ccccc2C1=O", "note": "[menadione, 2-methylnaphthalene-1,4-dione]", "values": [{"measurement": "IC50", "setting": "[1]", "value": "9.77 ± 3.33", "unit": "µM"}, {"measurement": "forebrain ChE inhibited", "setting": "[2]", "value": 11, "unit": "%"}, {"measurement": "hindbrain ChE inhibited", "setting": "[2]", "value": 17, "unit": "%"}, {"measurement": "paraoxon formation", "setting": "[3]", "value": "marked decrease"}, {"measurement": "IC50", "setting": "[4]", "value": "7.02 ± 0.53", "unit": "µM"}, {"measurement": "IC50", "setting": "[5]", "value": "4.6 ± 0.87", "unit": "µM"}, {"measurement": "Vmax for formation of 2-hydroxyterephthalate, a marker of hydroxyl radicals", "setting": "[6]", "value": 1.2, "unit": "µmol/min/mg CPR protein"}, {"measurement": "paraoxon formation", "setting": "[7]", "value": "marked decrease"}, {"measurement": "inhibition of liver Ces by parathion", "setting": "[8]", "value": "reduced the inhibition"}, {"measurement": "CYP1A2 mediated activation of parathion and AChE inhibition", "setting": "[9]", "value": "completely abolished"}]}]}
